Data from patent US11660303B2, “2-phenylimidazo[4,5-b]pyridin-7-amine derivates useful as inhibitors of mammalian tyrosine kinase ROR1 activity” (KANCERA AB, priority 2016, dated 2023).

How the values were obtained:
[1] = system: PBMC from healthy volunteers; assay: CellTiter-Blue Cell Viability Assay, PBMC from healthy volunteers; assay type: cell-based; conditions: Homo sapiens, cell toxicity, culture 24, 48 and 72 h (time of the values not stated)
Experimental: (§1) The CellTiter-Blue® Cell Viability Assay provides a homogeneous, fluorometric method for estimating the number of viable cells present in multi-well plates. The assay uses the indicator dye resazurin to measure the metabolic capacity of cells. Viable cells retain the ability to reduce resazurin into resorufin, which is highly fluorescent.
(§2) Stock solutions (10 or 100 mM in DMSO) of compounds were serially diluted 1:2 in 11 concentrations and 25 nL/well (100 mM stock) or 50 nL/well (10 mM stock) were acoustically dispensed in assay plates with an EDC acoustic dispenser. Final starting concentration in the assay was 20 μM (0.2% DMSO) or 100 μM (0.1% DMSO) for test compounds.
(§3) Peripheral blood mononuclear cells (PBMC) from CLL patients or healthy volunteers were seeded in assay plates (384-well black/clear, Greiner #781091) pre-dispensed with compounds, 25 μL/well, and cultured for 24, 48 and 72 h. The cell concentration was 50 000 cells/well for PBMC from CLL patients or healthy volunteers. After 24, 48 and 72 h culture, Celltiter Blue reagent was added (5 μL/well) and the plates were incubated for 2 h. The plates were read in an Envision fluorescence reader (PerkinElmer) with Ex544 nm/Em590 nm. Results were calculated as % cytotoxicity compared to background (cells treated with 0.2% DMSO).
(§4) Thus, IC50 values for cell toxicity in PBMC from CLL patients as well as healthy volunteers for some compounds of the invention are shown in Table 3 as measured by the CellTiter-Blue® Cell Viability Assay.

PBMC from CLL patients = assay: CellTiter-Blue Cell Viability Assay, PBMC from CLL patients; assay type: cell-based; conditions: Homo sapiens, cell toxicity, culture 24, 48 and 72 h (time of the values not stated)
Experimental: as §1, §2, §3, §4

CCN1CCC(Nc2c(Br)cnc3[nH]c(-c4ccc(N5CCNC(=O)CC5)cc4)nc23)CC1 [Example 53, 1-(4-{6-Bromo-7-[(1-ethylpiperidin-4-yl)amino]-3H-imidazo[4,5-b]pyridin-2-yl}phenyl)-1,4-diazepan-5-one]
IC50 [1]: > 20 µM | IC50 (PBMC from CLL patients): 480 nM

CCOCCN1CCN(c2ccc(-c3nc4c(NC5CC(C)(C)N(C)C(C)(C)C5)c(Br)cnc4[nH]3)cc2)CC1=O [Example 342, 4-(4-{6-Bromo-7-[(1,2,2,6,6-pentamethylpiperidin-4-yl)amino]-3H-imidazo[4,5-b]pyridin-2-yl}phenyl)-1-(2-ethoxyethyl)piperazin-2-one]
IC50 [1]: > 20 µM | IC50 (PBMC from CLL patients): 40 nM

CCN1CCN(c2ccc(-c3nc4c(NC5CCN(C)CC5)c(Br)cnc4[nH]3)cc2)CC1 [Example 10, 6-Bromo-2-[4-(4-ethylpiperazin-1-yl)phenyl]-N-(1-methylpiperidin-4-yl)-3H-imidazo[4,5-b]pyridin-7-amine]
IC50 [1]: > 20 µM | IC50 (PBMC from CLL patients): 110 nM

CN1CCC(Nc2c(Cl)cnc3[nH]c(-c4ccc(N5CCN(C)CC5)cc4)nc23)CC1 [Example 2, 6-Chloro-2-[4-(4-methylpiperazin-1-yl)phenyl]-N-(1-methylpiperidin-4-yl)-3H-imidazo[4,5-b]pyridin-7-amine]
IC50 [1]: > 20 µM | IC50 (PBMC from CLL patients): 160 nM

COCCCN1CCN(c2ccc(-c3nc4c(NC5CCN(CCOC)CC5)c(Cl)cnc4[nH]3)cc2)CC1 [Example 308, 6-Chloro-N-[1-(2-methoxyethyl)piperidin-4-yl]-2-{4-[4-(3-methoxypropyl)piperazin-1-yl]phenyl}-3H-imidazo[4,5-b]pyridin-7-amine]
IC50 [1]: > 20 µM | IC50 (PBMC from CLL patients): 650 nM

COCCN1CCN(c2ccc(-c3nc4c(NC5CCN(Cc6ccc(O)c(OC)c6)CC5)c(Cl)cnc4[nH]3)cc2)CC1 [Example 103, 4-({4-[(6-Chloro-2-{4-[4-(2-methoxyethyl)piperazin-1-yl]phenyl}-3H-imidazo[4,5-b]pyridin-7-yl)amino]piperidin-1-yl}methyl)-2-methoxyphenol]
IC50 [1]: > 20 µM | IC50 (PBMC from CLL patients): 350 nM

COCCC(=O)N1CCN(c2ccc(-c3nc4c(NC5CCN(C)CC5)c(Cl)cnc4[nH]3)cc2)CC1 [Example 276, 6-Chloro-2-{4-[4-(3-methoxypropanoyl)piperazin-1-yl]phenyl}-N-(1-methylpiperidin-4-yl)-3H-imidazo[4,5-b]pyridin-7-amine]
IC50 [1]: > 20 µM | IC50 (PBMC from CLL patients): 50 nM

COc1ccc(CN2CCC(Nc3c(Cl)cnc4[nH]c(-c5ccc(N6CCN(C(C)=O)CC6)cc5)nc34)CC2)cc1 [Example 35, 2-[4-(4-Acetylpiperazin-1-yl)phenyl]-6-chloro-N-[1-(4-methoxybenzyl)piperidin-4-yl]-3H-imidazo[4,5-b]pyridin-7-amine]
IC50 [1]: > 20 µM | IC50 (PBMC from CLL patients): 430 nM

CCN1CCC(Nc2c(Cl)cnc3[nH]c(-c4ccc(N5CCN(Cc6cncs6)CC5)cc4)nc23)CC1 [Example 320, 6-Chloro-N-(1-ethylpiperidin-4-yl)-2-{4-[4-(1,3-thiazol-5-ylmethyl)piperazin-1-yl]phenyl}-3H-imidazo[4,5-b]pyridin-7-amine]
IC50 [1]: > 20 µM | IC50 (PBMC from CLL patients): 100 nM

CCN1CCC(Nc2c(Cl)cnc3[nH]c(-c4ccc(N5CCN(Cc6cccc(C)n6)CC5)cc4)nc23)CC1 [Example 142, 6-Chloro-N-(1-ethylpiperidin-4-yl)-2-(4-{4-[(6-methylpyridin-2-yl)methyl]piperazin-1-yl}phenyl)-3H-imidazo[4,5-b]pyridin-7-amine]
IC50 [1]: 14.8 µM | IC50 (PBMC from CLL patients): 240 nM

COCCN1CCN(c2ccc(-c3nc4c(NC5CCN(C(C)C)CC5)c(Cl)cnc4[nH]3)cc2OC)CC1 [Example 387, 6-Chloro-2-{3-methoxy-4-[4-(2-methoxyethyl)piperazin-1-yl]phenyl}-N-[1-(1-methylethyl)piperidin-4-yl]-3H-imidazo[4,5-b]pyridin-7-amine]
IC50 [1]: > 20 µM | IC50 (PBMC from CLL patients): 1300 nM

CN1CCC(Nc2c(Cl)cnc3[nH]c(-c4ccc(N5CCCN(C)CC5)cc4)nc23)CC1 [Example 22, 6-Chloro-2-[4-(4-methyl-1,4-diazepan-1-yl)phenyl]-N-(1-methylpiperidin-4-yl)-3H-imidazo[4,5-b]pyridin-7-amine]
IC50 [1]: 18.6 µM | IC50 (PBMC from CLL patients): 170 nM

COc1ccc(CN2CCC(Nc3c(Cl)cnc4[nH]c(-c5ccc(N6CCN(S(C)(=O)=O)CC6)cc5)nc34)CC2)cc1 [Example 44, 6-Chloro-N-[1-(4-methoxybenzyl)piperidin-4-yl]-2-{4-[4-(methylsulfonyl)piperazin-1-yl]phenyl}-3H-imidazo[4,5-b]pyridin-7-amine]
IC50 [1]: > 20 µM | IC50 (PBMC from CLL patients): 440 nM

CC(C)N1CCC(Nc2c(Cl)cnc3[nH]c(-c4ccc(N5CCN(Cc6cccnc6)CC5)cc4)nc23)CC1 [Example 168, 6-Chloro-N-[1-(1-methylethyl)piperidin-4-yl]-2-{4-[4-(pyridin-3-ylmethyl)piperazin-1-yl]phenyl}-3H-imidazo[4,5-b]pyridin-7-amine]
IC50 [1]: 17.2 µM | IC50 (PBMC from CLL patients): 230 nM

COCCN1CCN(c2ccc(-c3nc4c(NC5CCN(C)CC5)c(Cl)cnc4[nH]3)cc2F)CC1 [Example 372, 6-Chloro-2-{3-fluoro-4-[4-(2-methoxyethyl)piperazin-1-yl]phenyl}-N-(1-methylpiperidin-4-yl)-3H-imidazo[4,5-b]pyridin-7-amine]
IC50 [1]: > 20 µM | IC50 (PBMC from CLL patients): 310 nM

CN1CCC(Nc2c(Cl)cnc3[nH]c(-c4ccc(N5CCC(CCO)CC5)cc4)nc23)CC1 [Example 254, 2-[1-(4-{6-Chloro-7-[(1-methylpiperidin-4-yl)amino]-3H-imidazo[4,5-b]pyridin-2-yl}phenyl)piperidin-4-yl]ethanol]
IC50 [1]: 16.3 µM | IC50 (PBMC from CLL patients): 50 nM

CCN1CCC(Nc2c(Br)cnc3[nH]c(-c4ccc(N5CCN(C(=O)c6ccncc6)CC5)cc4)nc23)CC1 [Example 331, 6-Bromo-N-(1-ethylpiperidin-4-yl)-2-{4-[4-(pyridin-4-ylcarbonyl)piperazin-1-yl]phenyl}-3H-imidazo[4,5-b]pyridin-7-amine]
IC50 [1]: > 20 µM | IC50 (PBMC from CLL patients): 190 nM

COCCN1CCN(c2ccc(-c3nc4c(NC5CCN(CC6CC6)CC5)c(Cl)cnc4[nH]3)cc2)CC1=O [Example 355, 4-[4-(6-Chloro-7-{[1-(cyclopropylmethyl)piperidin-4-yl]amino}-3H-imidazo[4,5-b]pyridin-2-yl)phenyl]-1-(2-methoxyethyl)piperrazin-2-one]
IC50 [1]: > 20 µM | IC50 (PBMC from CLL patients): 110 nM

COCCN1CCN(c2ccc(-c3nc4c(NC5CCN(Cc6ccc(OC)cc6)CC5)c(Cl)cnc4[nH]3)cc2)CC1=O [Example 260]
IC50 [1]: > 20 µM | IC50 (PBMC from CLL patients): 220 nM

CCN1CCC(Nc2c(Br)cnc3[nH]c(-c4ccc(N5CCN(Cc6cccnc6)CC5)cc4)nc23)CC1 [Example 174, 6-Bromo-N-(1-ethylpiperidin-4-yl)-2-{4-[4-(pyridin-3-ylmethyl)piperazin-1-yl]phenyl}-3H-imidazo[4,5-b]pyridin-7-amine]
IC50 [1]: > 20 µM | IC50 (PBMC from CLL patients): 10 nM

CN1CCC(Nc2c(Br)cnc3[nH]c(-c4ccc(N5CCN(CCCO)CC5)cc4)nc23)CC1 [Example 268, 3-[4-(4-{6-Bromo-7-[(1-methylpiperidin-4-yl)amino]-3H-imidazo[4,5-b]pyridin-2-yl}phenyl)piperazin-1-yl]propan-1-ol]
IC50 [1]: > 20 µM | IC50 (PBMC from CLL patients): 10 nM

CCN1CCC(Nc2c(Br)cnc3[nH]c(-c4ccc(N5CCN(C)C(=O)C5)cc4)nc23)CC1 [Example 299, 4-(4-{6-Bromo-7-[(1-ethylpiperidin-4-yl)amino]-3H-imidazo[4,5-b]pyridin-2-yl}phenyl)-1-methylpiperazin-2-one]
IC50 [1]: > 20 µM | IC50 (PBMC from CLL patients): 90 nM
